Test results reported in the NIST ThermoML archive (doi:10.1016/j.jct.2014.12.022).

Test: molar heat capacity at constant pressure; xn = mol fraction of the nth substance listed
Details: 100 kPa, Liquid, Small sample (50 mg) DSC

Cc1cccc(Cl)c1 [3-chlorotoluene] + c1ccccc1
molar heat capacity at constant pressure [J/K/mol]
Details | 293.15 K | 298.15 K | 303.15 K
x2 = 0.1056 | 169.49 | 170.68 | 171.79
x2 = 0.1477 | 167.26 | 168.43 | 169.51
x2 = 0.1746 | 165.85 | 167.02 | 168.08
x2 = 0.2065 | 164.21 | 165.37 | 166.4
x2 = 0.2347 | 162.78 | 163.93 | 164.95
x2 = 0.2856 | 160.26 | 161.4 | 162.4
x2 = 0.3148 | 158.85 | 160 | 160.98
x2 = 0.3452 | 157.42 | 158.56 | 159.53
x2 = 0.3899 | 155.37 | 156.52 | 157.48
x2 = 0.4132 | 154.33 | 155.48 | 156.44
x2 = 0.4499 | 152.73 | 153.89 | 154.85
x2 = 0.4967 | 150.76 | 151.94 | 152.9
x2 = 0.5231 | 149.69 | 150.88 | 151.84
x2 = 0.5505 | 148.6 | 149.81 | 150.77
x2 = 0.5836 | 147.32 | 148.55 | 149.52
x2 = 0.6335 | 145.46 | 146.73 | 147.72
x2 = 0.6625 | 144.42 | 145.71 | 146.71
x2 = 0.6988 | 143.15 | 144.47 | 145.5
x2 = 0.7207 | 142.41 | 143.74 | 144.78
x2 = 0.7756 | 140.58 | 141.98 | 143.06
x2 = 0.8045 | 139.65 | 141.08 | 142.18
x2 = 0.8466 | 138.32 | 139.8 | 140.94
x2 = 0.8845 | 137.14 | 138.67 | 139.84
x2 = 0.9197 | 136.05 | 137.63 | 138.84

Cc1ccc(Cl)cc1 [4-chlorotoluene] + c1ccccc1
molar heat capacity at constant pressure [J/K/mol]
Details | 293.15 K | 298.15 K | 303.15 K
x2 = 0.0912 | 170.37 | 172.42 | 174.55
x2 = 0.1226 | 168.6 | 170.58 | 172.63
x2 = 0.1657 | 166.22 | 168.12 | 170.06
x2 = 0.2012 | 164.3 | 166.15 | 168.01
x2 = 0.2374 | 162.4 | 164.19 | 165.99
x2 = 0.2675 | 160.86 | 162.61 | 164.35
x2 = 0.3135 | 158.57 | 160.26 | 161.93
x2 = 0.3456 | 157.02 | 158.69 | 160.3
x2 = 0.3702 | 155.87 | 157.51 | 159.08
x2 = 0.4231 | 153.47 | 155.06 | 156.56
x2 = 0.4657 | 151.63 | 153.19 | 154.63
x2 = 0.5093 | 149.83 | 151.35 | 152.74
x2 = 0.5346 | 148.82 | 150.33 | 151.68
x2 = 0.5723 | 147.36 | 148.85 | 150.16
x2 = 0.6022 | 146.25 | 147.72 | 148.99
x2 = 0.6357 | 145.04 | 146.49 | 147.73
x2 = 0.6701 | 143.84 | 145.27 | 146.49
x2 = 0.6989 | 142.86 | 144.29 | 145.48
x2 = 0.7224 | 142.08 | 143.51 | 144.68
x2 = 0.7564 | 140.98 | 142.41 | 143.56
x2 = 0.8096 | 139.31 | 140.75 | 141.89
x2 = 0.8213 | 138.95 | 140.4 | 141.54
x2 = 0.8543 | 137.95 | 139.41 | 140.56
x2 = 0.8886 | 136.92 | 138.42 | 139.57

CN1CCCC1=O [N-methylpyrrolidone] + c1ccccc1
molar heat capacity at constant pressure [J/K/mol]
Details | 293.15 K | 298.15 K | 303.15 K
x1 = 0.0787 | 137.73 | 139.51 | 140.9
x1 = 0.1156 | 139.63 | 141.42 | 142.83
x1 = 0.168 | 142.27 | 144.04 | 145.46
x1 = 0.1983 | 143.75 | 145.51 | 146.92
x1 = 0.2249 | 145.03 | 146.77 | 148.18
x1 = 0.2634 | 146.83 | 148.55 | 149.94
x1 = 0.3065 | 148.78 | 150.46 | 151.83
x1 = 0.3325 | 149.91 | 151.58 | 152.93
x1 = 0.3617 | 151.15 | 152.8 | 154.13
x1 = 0.4106 | 153.13 | 154.74 | 156.04
x1 = 0.4367 | 154.13 | 155.73 | 157.02
x1 = 0.4635 | 155.13 | 156.71 | 157.98
x1 = 0.5008 | 156.45 | 158.01 | 159.26
x1 = 0.5598 | 158.37 | 159.91 | 161.13
x1 = 0.5952 | 159.42 | 160.95 | 162.15
x1 = 0.6245 | 160.24 | 161.75 | 162.94
x1 = 0.6616 | 161.18 | 162.69 | 163.85
x1 = 0.7099 | 162.28 | 163.76 | 164.9
x1 = 0.7494 | 163.06 | 164.51 | 165.62
x1 = 0.7748 | 163.51 | 164.93 | 166.02
x1 = 0.8011 | 163.92 | 165.31 | 166.38
x1 = 0.8319 | 164.35 | 165.68 | 166.72
x1 = 0.8767 | 164.84 | 166.08 | 167.06
x1 = 0.9152 | 165.15 | 166.28 | 167.2
